According to patent publication US20260250317A1, “COMPOUND AND USE OF THE SAME” (JAPAN SCIENCE AND TECHNOLOGY AGENCY, priority 2022, published 2026):
Entries after “also recorded” stand apart in the source; their conditions may differ. Starred links: 1 amine or outer side, 2 acyl side, 3 side chain; linkers in the order of their positions; H or OH if unused. Non-standard residues stand in square brackets, D forms with d. Residues, ends and D or L forms follow the SMILES beside them. X1 = O=C(C(Cc1ccc(/N=N/c2ccccc2)cc1)N[*:1])[*:2]

How the values were obtained:
[1] = Photoresponsiveness (UV-vis absorption spectrum after light irradiation); type: physicochemical; details: 1 wt % dispersion in D-MEM with 4 mM HEPES, 25° C.; P1: 350 nm / 450 nm; P3: 540 nm / 450 nm
Experimental: The compound (P1) was dispersed in a D-MEM buffer solution including 4 mM HEPES to produce a dispersion liquid including 1 wt % of the compound (P1). This dispersion liquid was placed in a transparent cell having a depth of 1 mm and irradiated with light using a fluorescence microscope (Olympus IX-73). A U-HGLGPS (brightness: 130 W) was used as the light source for the fluorescence microscope and light was irradiated with a brightness output setting of 25%. The absorption spectrum and circular dichroism (CD) spectrum of the dispersion liquid after light irradiation were measured by ultraviolet-visible light spectroscopy. The measurements were performed at room temperature (25° C.).
This dispersion liquid was irradiated with 450 nm or 550 nm light and the absorption spectrum was analyzed by ultraviolet-visible spectroscopy (UV-vis) (JASCO V-650 spectrophotometer). Measurements were performed at room temperature (25° C.).

[2] = Evaluation of droplet stability (phase-contrast microscope); details: 1 wt % compound, 5 wt % DEX550k, 5 wt % PEG35k
Experimental: A mixed aqueous solution including 5 wt % dextran (550 kDa; DEX550k), 0.002 wt % rhodamine-DEX550k, and 5 wt % polyethylene glycol (35 kDa; PEG35k) was produced in a microtube. Next, the compound (P1) was added to the mixed aqueous solution to be 1 wt % thereof, dissolved, and stirred for 1 minute using a vortex. Due to this, liquid-liquid phase-separated droplets were produced.
Liquid-liquid phase-separated droplets were produced by the same method as in <Droplet Production Example 1>. After production of the droplets, the droplets were left to stand for 24 hours and the state of the droplets was observed using a phase-contrast microscope.
Liquid-liquid phase-separated droplets were produced by the same method as in <Droplet Production Example 1>. After production of the droplets, the droplets were left to stand for 16 days and the state of the droplets was observed using a phase-contrast microscope.

[3] = Droplet fusion and control by light irradiation
Experimental: A mixed aqueous solution including 5 wt % DEX550k and 5 w % PEG35k was produced in a microtube. Next, the compound (P1) was added to the mixed aqueous solution to be 1 wt % thereof, dissolved, and stirred for 1 minute using a vortex. […] The produced droplets were position-selectively irradiated with 350 nm light for 6 minutes. The droplet dispersion liquid was placed in a transparent cell having a depth of 1 mm and light irradiation was performed using a fluorescence microscope (Olympus IX-73). A U-HGLGPS (brightness: 130 W) was used as the light source for the fluorescence microscope and light was irradiated with a brightness output setting of 25%.
To observe the localization of the compound (P), the compound (P1) was labeled using Cy5. A mixed aqueous solution including 5 wt % dextran (550 kDa; DEX550k) and 5 wt % polyethylene glycol (35 kDa; PEG35k) was produced in a microtube. Next, the Cy5-labeled compound (P1) was added to the mixed aqueous solution to be 1 wt % thereof, dissolved, and stirred for 1 minute using a vortex. […] The droplets were irradiated with 350 nm light for 5 seconds. The droplet dispersion liquid was placed in a transparent cell having a depth of 1 mm and light irradiation was performed using a fluorescence microscope (Olympus IX-73). A U-HGLGPS (brightness: 130 W) was used as the light source for the fluorescence microscope and light was irradiated with a brightness output setting of 25%. Before and after light irradiation, the droplets were observed using a phase-contrast microscope (Olympus IX-73 connected to a phase-contrast light source) and a fluorescence microscope (Olympus IX-73 connected to a fluorescence light source U-HGLGPS).
A mixed aqueous solution including 5 wt % dextran (550 kDa; DEX550k) and 5 wt % polyethylene glycol (35 kDa; PEG35k) was produced in a microtube. Next, the labeled compound (P1) was added to the mixed aqueous solution to be 1 wt % thereof, dissolved, and stirred for 1 minute using a vortex. […] The droplets were subjected to any of the following light irradiation operations (1) to (3). The light irradiation was performed in the same manner as described above. • (1) No light irradiation. • (2) Irradiation with 350 nm light for 5 seconds. • (3) Irradiation with 350 nm light for 5 seconds, followed by irradiation with 550 nm light for 5 seconds.
The droplets were observed under a phase-contrast microscope before and after carrying out the light irradiation operation under the above-described conditions. In (1), an image “before carrying out the light irradiation operation” was taken and then an image “after carrying out the light irradiation operation” was taken within 1 minute. No light irradiation was performed between “before carrying out the light irradiation operation” and “after carrying out the light irradiation operation”. In (2), an image “after carrying out the light irradiation operation” was taken immediately after 5 seconds of irradiation with 350 nm light. In (3), 350 nm light was irradiated for 5 seconds, immediately followed by irradiating 550 nm light for 5 seconds, and an image “after carrying out the light irradiation operation” was taken immediately after the 550 nm light was irradiated for 5 seconds.
A mixed aqueous solution including 5 wt % DEX550k and 5 w % PEG35k was produced in a microtube. Next, the compound (P2) was added to the mixed aqueous solution to be 1 wt % thereof, dissolved, and stirred for 1 minute using a vortex. […] The produced droplets were irradiated with 350 nm light for 5 seconds. The droplet dispersion liquid was placed in a transparent cell having a depth of 1 mm and light irradiation was performed using a fluorescence microscope (Olympus IX-73).

[4] = Rheological evaluation (storage modulus G' and loss modulus G'', rotational rheometer); type: physicochemical; details: trans form, 1.0 wt % in D-MEM buffer pH 8.5, incubated 3 days at 37° C. in dark
Experimental: The trans form of the compound (P1) was dispersed in a D-MEM buffer solution (4 mM HEPES, containing 1 wt % NaHCO3, pH 8.5) to produce a dispersion liquid including 1.0 wt % of the compound (P1). This dispersion liquid was incubated for 3 days in a dark place at 37° C. in a 5% CO2 atmosphere. Thereafter, the storage modulus G′ and loss modulus G″ were measured using a rotational rheometer (Malvern Panalytical, Kinexus lab+).
This dispersion liquid was incubated for 3 days in a dark place at 37° C. in a 5% CO2 atmosphere. The storage modulus G′ and loss modulus G″ were then measured using a rotational rheometer (Malvern Panalytical, Kinexus lab+).

[5] = Reversible gel-sol transition by light irradiation (test tube); type: physicochemical
Experimental: The compound (P1) was dispersed in a D-MEM buffer solution (4 mM HEPES, containing 1 wt % NaHCO3, pH 8.5) to produce a dispersion liquid including 1.0 wt % of the compound (P1). The dispersion liquid was placed in a test tube to observe the gel-sol transition caused by light irradiation. Incubation after the start of light irradiation was performed at 37° C. in a 5% CO2 atmosphere.
This dispersion liquid was placed in a test tube to observe the changes in gelation and solation caused by light irradiation. After the start of light irradiation, incubation was performed at 37° C. in a 5% CO2 atmosphere.

[6] = TEM analysis of dispersion liquid; type: physicochemical; details: 1.0 wt % dispersion, irradiated with 450 nm light
Experimental: (§1) This dispersion liquid was incubated for 3 days in a dark place at 37° C. in a 5% CO2 atmosphere. Thereafter, the dispersion liquid was irradiated with 450 nm light and analyzed with a transmission electron microscope (JEOL JEM-1400).
as §1, with “nm or 550 nm” for “nm”, “absorption spectrum analysis was performed by infrared absorption spectroscopy analysis (IR) (JASCO FTIR-6100) and analysis was performed using” for “analyzed with”

[7] = 1 wt % compound, 350 nm light for 5 seconds

state of droplet dispersion liquid before irradiation with 350 nm light ([3]; Cy5-labeled compound, 1 wt %)	state of droplet dispersion liquid after irradiation with 350 nm light ([3]; Cy5-labeled compound, 1 wt %, 350 nm light for 5 seconds)	gel formation (G' versus G'') [4]	state of dispersion liquid at start of light irradiation, cis form ([5]; 1.0 wt % in D-MEM buffer pH 8.5, 0 min)	state of dispersion liquid at start of light irradiation, trans form ([5]; 1.0 wt % in D-MEM buffer pH 8.5, 0 min / before irradiation)	state of trans-form dispersion liquid after 350 nm light ([5]; 1.0 wt %, 350 nm light for 15 minutes, 37° C., 5% CO2)	state of cis-form dispersion liquid after 450 nm light ([5]; 1.0 wt %, 450 nm light for 15 minutes, 37° C., 5% CO2)	structure in TEM image, trans form [6]	Structure (SMILES)	photoisomerization of azobenzene structure on light irradiation [1]	time for which droplets were stably maintained ([2]; left to stand 24 hours)	time after which droplets were still stably maintained ([2]; left to stand 16 days)	change of droplets after 350 nm light [3, 7]	droplet fusion in light irradiated spot ([3]; 1 wt % compound, position-selective 350 nm light for 6 minutes)	change of droplets after 350 nm then 550 nm light ([3]; 1 wt % labeled compound, 350 nm light 5 seconds, then 550 nm light 5 seconds)	change of droplets, no light irradiation ([3]; 1 wt % labeled compound, operation (1) no light irradiation)
gel state	sol state	a gel was formed	underwent solation	underwent gelation	underwent solation	underwent gelation	formed a structure in a fibrous state	CSCCC(NC(=O)C(CCCNC(=N)N)NC(=O)C(C)NC(=O)C(CC(=O)O)NC(=O)C(Cc1ccc(/N=N/c2ccccc2)cc1)NC(=O)C(CCCNC(=N)N)NC(C)=O)C(=O)NC(CCCNC(=N)N)C(N)=O (stereo not shown) [Compound (P1)] (Ac-R[X1]DARMR-NH2; configuration not given here)	reversibly isomerized from the trans form to the cis form and from the cis form to the trans form	≥ 24 h	≥ 16 days	droplets which were larger than before the light irradiation were observed; also recorded: the size of the droplets significantly increased	a larger droplet was formed	the number of droplets decreased and the size of the droplets increased	no change was seen in the size of the droplets
–	–	–	–	–	–	–	–	CSCCC(NC(=O)C(CCCNC(=N)N)NC(C)=O)C(=O)NC(CC(=O)O)C(=O)NC(C)C(=O)NC(CCCNC(=N)N)C(=O)NC(Cc1ccc(/N=N/c2ccccc2)cc1)C(=O)NC(CCCNC(=N)N)C(N)=O (stereo not shown) [Compound (P2)] (Ac-RMDAR[X1]R-NH2; configuration not given here)	–	–	–	larger droplets were formed	–	–	–
